Assay results: patent publication US5618830A (priority 1995, dated 1997)
Where a name gives a salt, the structure may show the parent alone. Read-outs that look alike come from different tables or passages of the source.

What was measured:
RNase T1 = RNase T1 (Aspergillus oryzae, UniProt P00651); experiment: RNase T1 assay
[1] = molecular target: influenza virus transcription (Influenza A virus (A/nt/60/1968(H3N2)), UniProt P03434); type: biochemical, influenza virus A/Hong Kong/8/68 (H3N2); conditions: read-out: IC50, inhibition of influenza virus transcription; virus strain A/Hong Kong/8/68 (H3N2); primed with cap1 ALMV
Hela RNA Polymerase II = molecular target: T1, Hela RNA Polymerase II (Homo sapiens, UniProt P24928); experiment: Hela RNA polymerase II run-off transcription; type: biochemical
T1 construct: Hela RNA polymerase II in Hela extract; endogenous in cells; host or cells: HeLa extract
Procedure: d. Hela RNA polymerase II-Compounds or DMSO were incubated in a run-off transcription assay using Hela RNA polymerase II in Hela extract with 50 ng/μl of pD5 template (Adeno major late promoter) in a final reaction containing 500 μM A,C,GTP and 0.5 μM [32]P-UTP in 15 mM Tris-HCl, pH 7.9/7.0 mM MGCl2 /32 mM (NH4)2 SO4 /0.2 mM EDTA/1.3 mM DTT for 60 min at 30° C. Following ethanol precipitation, reaction products were electrophoresed on 8% polyacrylamide gels containing 7M urea.

RNase U2 = RNase U2 (Ustilago sphaerogena, UniProt P00654); experiment: RNase U2 assay
[2] = test system: influenza virus transcription; experiment: in vitro transcription primed with cap1 ALMV, B/Hong Kong/5/72; type: biochemical, influenza virus B/Hong Kong/5/72; conditions: virus strain B/Hong Kong/5/72, read-out: IC50, inhibition of influenza virus transcription
[3] = molecular target: influenza transcription (flu APR8 virus) (Influenza A virus, UniProt P03433); experiment: biochemical; design: species or system influenza virus A/PR/8/34 (H1N1)
[4] = molecular target: cap-independent influenza transcription primed with ApG (Influenza A virus, UniProt P03431); experiment: biochemical
[5] = molecular target: influenza virus transcription (Influenza A virus (A/Japan/305-/1957(H2N2)), UniProt Q1K9Q4); type: biochemical, influenza virus A/Japan/305/57 (H2N2); conditions: read-out: IC50, inhibition of influenza virus transcription; virus strain A/Japan/305/57 (H2N2); primed with cap1 ALMV
RNase A = RNase A (Bos taurus, UniProt P61823); experiment: RNase A assay
HIV RNase H = HIV RNase H (Human immunodeficiency virus type 1 group M subtype B, UniProt P04585); experiment: HIV RNase H assay; type: biochemical
[6] = molecular target: influenza virus transcription (Influenza A virus (A/Port Chalmers/1/1973(H3N2)), UniProt Q1PUD2); type: biochemical, influenza virus A/Port Chalmers/1/73 (H3N2); conditions: read-out: IC50, inhibition of influenza virus transcription
VSV transcription = VSV transcription (Vesicular stomatitis Indiana virus, UniProt P03523); experiment: biochemical
Influenza Endonuclease = Influenza Endonuclease (Influenza A virus, UniProt P03433); experiment: biochemical
[7] = molecular target: EcoRI Restriction Endonuclease (Escherichia coli, UniProt P00642); experiment: EcoRI Restriction Endonuclease assay; type: biochemical
T7 Phage RNA Polymerase = T7 Phage RNA Polymerase (Escherichia phage T7, UniProt P00573); experiment: T7 Phage RNA Polymerase assay; type: biochemical
Hela DNA Polymerase-a = molecular target: T2, Hela DNA Polymerase-a (Homo sapiens, UniProt P09884); experiment: Hela DNA Polymerase-a assay; type: biochemical
T2 construct: Hela cell DNA polymerase α; endogenous in cells; host or cells: HeLa cells
T2 sequence (P09884 1-1462): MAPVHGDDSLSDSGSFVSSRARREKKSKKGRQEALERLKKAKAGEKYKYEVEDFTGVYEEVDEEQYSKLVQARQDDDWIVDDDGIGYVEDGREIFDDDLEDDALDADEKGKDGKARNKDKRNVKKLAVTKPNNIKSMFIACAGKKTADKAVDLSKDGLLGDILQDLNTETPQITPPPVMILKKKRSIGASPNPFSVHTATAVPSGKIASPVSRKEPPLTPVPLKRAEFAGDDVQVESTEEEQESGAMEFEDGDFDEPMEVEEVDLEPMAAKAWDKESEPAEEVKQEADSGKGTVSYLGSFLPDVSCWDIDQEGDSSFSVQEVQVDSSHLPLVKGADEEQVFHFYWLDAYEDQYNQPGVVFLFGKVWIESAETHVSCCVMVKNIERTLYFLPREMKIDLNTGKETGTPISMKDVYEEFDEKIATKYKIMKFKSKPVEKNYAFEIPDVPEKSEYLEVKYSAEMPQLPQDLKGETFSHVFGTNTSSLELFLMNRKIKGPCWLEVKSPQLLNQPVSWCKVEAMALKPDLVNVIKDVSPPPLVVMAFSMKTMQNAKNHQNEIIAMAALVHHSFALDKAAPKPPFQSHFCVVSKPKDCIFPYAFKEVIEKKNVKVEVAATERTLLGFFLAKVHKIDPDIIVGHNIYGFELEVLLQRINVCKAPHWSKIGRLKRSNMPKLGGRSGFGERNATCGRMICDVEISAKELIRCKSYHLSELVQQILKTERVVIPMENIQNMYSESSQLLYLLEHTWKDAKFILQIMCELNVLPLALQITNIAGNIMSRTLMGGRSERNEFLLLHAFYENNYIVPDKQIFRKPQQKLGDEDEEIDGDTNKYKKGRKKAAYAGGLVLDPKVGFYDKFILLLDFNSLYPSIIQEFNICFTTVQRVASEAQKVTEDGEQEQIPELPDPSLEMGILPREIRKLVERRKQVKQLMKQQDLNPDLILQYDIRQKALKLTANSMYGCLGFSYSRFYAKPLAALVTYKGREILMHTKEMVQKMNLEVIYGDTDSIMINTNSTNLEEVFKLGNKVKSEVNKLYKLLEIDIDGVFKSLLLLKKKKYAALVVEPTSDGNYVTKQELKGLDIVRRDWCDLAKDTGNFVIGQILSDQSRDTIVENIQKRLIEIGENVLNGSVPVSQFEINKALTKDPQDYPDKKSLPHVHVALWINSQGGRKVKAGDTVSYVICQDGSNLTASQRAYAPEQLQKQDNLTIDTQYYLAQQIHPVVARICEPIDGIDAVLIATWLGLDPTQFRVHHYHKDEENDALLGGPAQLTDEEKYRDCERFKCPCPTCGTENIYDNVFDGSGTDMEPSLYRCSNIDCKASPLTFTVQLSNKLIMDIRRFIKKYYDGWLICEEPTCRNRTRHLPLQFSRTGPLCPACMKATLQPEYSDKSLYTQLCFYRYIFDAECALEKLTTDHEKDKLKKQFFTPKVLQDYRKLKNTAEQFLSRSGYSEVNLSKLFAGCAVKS

For O=C(O)C(=O)CC(=O)C1(Cc2ccc(Cl)cc2)CCCN(Cc2ccccc2)C1 (centres unmarked) [Compound A, 4-[N-benzyl-3-(4-chlorobenzyl)piperidin-3-yl]2,4-dioxobutanoic acid hydrochloride], which IC50 (RNase T1) is on record?
The IC50 was over 200 µM.

What about the IC50 [1] of the same molecule?
Its IC50 is 0.62 µM.

What about the IC50 (Hela RNA Polymerase II) of the same molecule?
The IC50 was over 500 µM.

What about the IC50 (RNase U2) of the same molecule?
The IC50 was over 200 µM.

And the IC50 [2]?
Its IC50 is 0.85 µM.

And the IC50 [3]?
The IC50 was 1.1 µM.

And the IC50 ([3]; read-out: IC50, inhibition of influenza virus transcription)?
The IC50 was 1.1 µM.

What about the IC50 [4] of the same molecule?
Its IC50 is over 1000 µM.

And the IC50 [5]?
Its IC50 is 0.25 µM.

What about the IC50 (RNase A) of the same molecule?
Its IC50 is over 200 µM.

And the IC50 (HIV RNase H)?
The IC50 was 100 µM.

What about the IC50 [6] of the same molecule?
The IC50 was 0.5 µM.

What about the IC50 (VSV transcription) of the same molecule?
Its IC50 is over 500 µM.

And the IC50 (Influenza Endonuclease)?
The IC50 was 1.8 µM.

What about the IC50 [7] of the same molecule?
The IC50 was over 500 µM.

And the IC50 (T7 Phage RNA Polymerase)?
The IC50 was over 100 µM.

And the IC50 (Hela DNA Polymerase-a)?
The IC50 was over 100 µM.
